Key:
Type in all cases: cell-based, human
[1] = tested on: TNF-alpha; experiment: TNF-alpha production by PBMC of healthy volunteers, ELISA of culture supernatant; conditions: 24 hours, median ± standard error, n=10
Description: In order to quantify the serum cytokines concentration, the extracted blood was stored in tubes both with and without anti-coagulant (collected by antecubital venopunction and arterial catheter, respectively). Blood was allowed to coagulate at room temperature in the laboratory, further separating the serum by centrifugation (600xg during 20 minutes). Supernatant were collected, filtered, divided in aliquotes and stored at -70°C. Concentration assays for different cytokines were performed by using the commercial kits described in Table 2. Table 2.- Commercial ELISA kits used in this study
Supernatants were unfrozen up to the room temperature and faced against the respective anti-cytokine by fixing them in the plate bottom and incubating them during a variable time. Subsequently, wash-outs were carried out and the substances recommended by the corresponding company were added in order to allow a colorimetric reaction, in a proportional manner to the amount of cytokine present in the supernatant. The results were assessed with the enzymo-immunoanalysis reader Multititer Plus (Tiertek Multiscan Plus, Flow Laboratories).
The analysis of the standard curves and subsequent interpolation was performed with the software Delta Soft II version 4.1 (Biometallics, Inc.) in an Apple Macintosh computer. Cytokine concentrations were converted to molar in order to calculate the molecular ratios of each case and the number of soluble molecules.
Effects of compound 12 on TNF-alpha production by PBMC of healthy volunteers in the presence or in the absence of LPS were first investigated. PBMC (5 x 10^4 cells/well, 200 µl) from 10 healthy volunteers were cultured in parallel in duplicate in tissue culture plates, 96 well, flat-bottom with low evaporation lid (353072 Falcon, Becton Dickinson labware, Franklin Lakes, USA, 07417-1886 NJ) in complete medium (RPMI-1640 with glutamine Cat BE-12-70F, Cambrex Biosciences, B4880 Verviers, Belgium), supplemented with phoetal bovine serum (origin USA, Gibco ref. 26140-079) and a solvent concentration of 10^-6 M alone or supplemented with 10^-6 M or 10^-7 M of compound 12, in the presence and in the absence of LPS (10microg/ml; E. coli LPS 0111:B4 strain InvivoGene, San Diego CA92121 USA) during 24 hours. Supernatant of cultures were frozen at -20°C and the concentration of TNF-alpha was quantified with ELISA species-specific (enzyme-linked immunosorbent assay for quantitative detection of tumour necrosis factor- alpha: human TNF-alpha ELISA BM S223/4TEUCE, Bender Med System Inc, Burlinghane CA 94010).

[2] = tested on: TNF-alpha; experiment: TNF-alpha production by PBMC from healthy volunteers, Cytometric Bead Array (CBA); conditions: 24 hours, mean ± standard error, n=13
Description: CBA protocol was followed according to the manufacturer's instructions. The election of microparticles was performed following the summary of Figure 1.
The acquisition on samples was performed with the BD FACS Array Bioanalyser System (FACSArray, Becton Dickinson, San José, CA, USA) and the analysis of the results was completed with the software FCAP Array (Becton Dickinson) in a PC computer.
Briefly, the experimental protocol consisted of a plate pre-washing out with Wash Buffer. After decantation, the mixture of capture microparticles was re-suspended in the vortex. Standards and samples were added in the adequate dilution. After permanent stirring incubation during 1 h, the PE detection reagent was added and incubated again during 2h at room temperature. After a washing-out, the acquisition was performed in the flow cytometer. Table 3. -Kit CBA Human Soluble Protein Multiplex Flex Set System.
PBMC (5 x 10^4 cells/well) from 13 healthy volunteers were cultured in duplicate in 200 µl of complete medium supplemented with the highest solvent concentration (10^-6 M), […] the absence of LPS (10µg/ml) during 24 hours. Supernatant of cultures were frozen at -20°C and quantification was carried out by BD FACS Array Bioanayliser (BD Biosciences Cat No. 340128, San Diego CA 92121) by using specific reagents for the simultaneous assay of the indicated cytokines concentration (CBA Flex Multiplex Set (BD™ Cytometric Bead Array, CBA: IL-8, IL-10, TNF-alpha and IFN-gamma Becton Dickinson Biosciences Pharmingen, San Diego CA 92121).

[3] = tested on: CD62L; experiment: Shedding of CD62L in lymphocytes of PBMC, flow cytometry; conditions: lymphocytes of PBMC from healthy volunteers, mean ± standard error, n=10, vehicle 112.68±13.57
Description: Direct immuno-fluorescence techniques of one colour with monoclonal antibodies phycoerythrin-labeled (PE) was used. PE is a fluorescent substance excitable with a 488 nm laser, which emits at 570 nm, and it is detectable and easily distinguishable by a flow cytometer. By using the antibody described in Table 1, a direct labelling was performed: PBMC labelling: the process consisted in a labelling using 96 well V bottom plates. In each well, 5 x 10^4 cells are located, and afterwards centrifugated at 400 xg during 5 minutes. After washing-out, cells are re-suspended and 5 µl of the corresponding monoclonal antibody are added. Cells are again re-suspended and the plate is incubated in darkness, during 20 minutes, at 4°C. Subsequently, 150 µl PBS are added and two wash-outs are performed. Finally, it is re-suspended in 150 µl PBS and collected in a cytometer tube, adding PBS up to a final volume of 0.3 ml. For the counting, a FACSCalibur flow cytometer equipped with argon laser tuned at 488 nm was used in order to induce phycoerythrin fluorescence. The equipment, apart from the fluorescence channels, also provided information about the size (FSC) and cellular complexity (SSC). […]
Table 14. -Mean fluorescence intensity of surface CD62L expression in lymphocytes. p values correspond to data with respect to the vehicle for each experimental condition.

Cc1nc(OC2CCCC2)c(-c2ccc(S(C)(=O)=O)cc2)s1 [compound 12, 4-cyclopentyloxy-5-(4-methylsulfonyl-phenyl)-2-methylthiazole]
TNF-alpha production in PMBC from healthy volunteers ([1]; LPS (10µg/ml), 10^-6 M, vehicle 3084.63±450.00, p 0.005): 1064.91±52.82 (0.005) pg/mL | TNF-alpha production in PMBC from healthy volunteers ([1]; LPS (10µg/ml), 10^-7 M, vehicle 3084.63±450.00, p 0.028): 1938.00±487.74 (0.028) pg/mL | TNF-alpha production in PMBC from healthy volunteers ([1]; medium (no stimulus), 10^-6 M, vehicle 1118.00±800.00, p 0.009): 551.60±324.17 (0.009) pg/mL | TNF-alpha production in PMBC from healthy volunteers ([1]; medium (no stimulus), 10^-7 M, vehicle 1118.00±800.00, p 0.114): 1121.00±100.48 (0.114) pg/mL | TNF-alpha production in PMBC from healthy volunteers ([2]; LPS (10µg/ml), 10^-6 M, vehicle 923.93±160.00, p 0.002): 602.12±100.00 (0.002) pg/mL | TNF-alpha production in PMBC from healthy volunteers ([2]; LPS (10µg/ml), 10^-7 M, vehicle 923.93±160.00, p 0.046): 746.84±125.00 (0.046) pg/mL | TNF-alpha production in PMBC from healthy volunteers ([2]; LPS (10µg/ml), 10^-8 M, vehicle 923.93±160.00, p 0.055): 738.81±100.00 (0.055) pg/mL | TNF-alpha production in PMBC from healthy volunteers ([2]; anti-CD3 (12.5 ng/ml) + anti-CD28 (1/3x10^5), 10^-6 M, vehicle 435.81±60.00, p 0.116): 334.21±63.00 (0.116) pg/mL | TNF-alpha production in PMBC from healthy volunteers ([2]; anti-CD3 (12.5 ng/ml) + anti-CD28 (1/3x10^5), 10^-7 M, vehicle 435.81±60.00, p 0.753): 404.11±97.00 (0.753) pg/mL | TNF-alpha production in PMBC from healthy volunteers ([2]; anti-CD3 (12.5 ng/ml) + anti-CD28 (1/3x10^5), 10^-8 M, vehicle 435.81±60.00, p 0.422): 355.62±65.00 (0.422) pg/mL | TNF-alpha production in PMBC from healthy volunteers ([2]; medium, 10^-6 M, vehicle 163.84±30.00, p 0.422): 148.31±50.00 (0.422) pg/mL | TNF-alpha production in PMBC from healthy volunteers ([2]; medium, 10^-7 M, vehicle 163.84±30.00, p 0.249): 197.81±40.00 (0.249) pg/mL | TNF-alpha production in PMBC from healthy volunteers ([2]; medium, 10^-8 M, vehicle 163.84±30.00, p 0.65): 168.49±16.00 (0.65) pg/mL | Mean fluorescence intensity of surface CD62L expression in lymphocytes (MFI) ([3]; 10^-6 M, p 0.47 as printed): 90.01±8.93 (0.47) | Mean fluorescence intensity of surface CD62L expression in lymphocytes (MFI) ([3]; 10^-7 M, p 0.333): 116.90±11.02 (0.333)

From patent publication EP2135864A1, “5-(4-methanesulfonyl-phenyl)-thiazole derivatives for the treatment of acute and chronic inflammatory diseases” (FAES FARMA, S.A., priority 2008, dated 2009)
